Results on 3 compounds are retold here after US10925858B2, “S-nitrosoglutathione (GSNO) and GSNO reductase inhibitors for use in therapy” (MUSC FOUNDATION FOR RESEARCH DEVELOPMENT, priority 2017, dated 2021).

Series [1] has as its system EAE mice. As to the kind of experiment: Active EAE (MOG35-55), clinical score. It counts as in vivo, C57BL/6 mice.
Experimental: Female C57BL/6 mice of 8-12 weeks of age, purchased from Jackson Laboratory, were provided with food and water ad libitum and were kept in pathogen free animal care facility of Medical University of South Carolina (MUSC) throughout the study. […] EAE was induced as described previously (Nath et al., 2009). Briefly, mice were immunized subcutaneously in the flank regions with MOG35-55 peptide (MOG; 200 μg; Peptide International) emulsified (1:1) in 100 ul complete Freund's adjuvant (CFA) on day 0 and day 7. Additionally, 300 ng of Pertussis toxin (Sigma-Aldrich, St. Louis, Mo.) was given on day 0 and day 2 by i.p. injection. Pertussis toxin used as per the standardized protocol reported by us and other investigators for the induction of EAE (Nath et al., 2009). Similarly, healthy control group received subcutaneous injection of PBS and CFA emulsion on day 0 and day 7. Clinical signs of EAE were scored by examiners blinded to experimental treatments using the following scale: 0=no clinical signs of disease; 1=piloerection and sluggish; 2=limp tail (ataxia); 2.5=ataxia with partial hind limb paralysis; 3=full paralysis of hind limb; 3.5=full paralysis of hind limb with paralysis of one fore limb; 4=full paralysis of two limbs; 4.5=moribund stage; 5=death. […] The drug treatments were continued till the termination of the study (day 41 post immunization). EAE animals without drug treatment received PBS. Likewise, healthy controls received vehicle.
Clinical disease scores as average maximal scores over the treatment period (mean±SD) and analyzed using Kruskal-Wallis test. […] Significances (p value) between groups were determined using the Newman-Keul test. A value of p<0.05* and above was considered significant.
Series [2] concerns lymphocytes in blood. As to the kind of experiment: Total lymphocyte count in blood of normal mice (lymphopenic effect). It counts as in vivo, C57BL/6 mice. To be noted: normal mice without EAE, 1 mg/kg/day for 19 days. How it is done: The bloods collected in EDTA blood collection tubes (BD Biosciences) were analyzed by an automated hematology analyzer for counting total lymphocytes. For counting of each subset of lymphocytes, 50 μl of blood was mixed with staining buffer (20 μl) containing fluorescence labelled antibodies and red-blood-cells were lysed with FACS lysing solution (BD Biosciences) prior to fluorescence flow-cytometric analysis. For staining of CD3+, CD4+, and CD8+ cells, allophycocvanin (APC)-labeled anti-mouse CD3 (eBioscience clone 17A2), Fluorescein isothiocyanate (FITC)-labeled anti-mouse CD4 (eBioscience clone RM4-5), APC-labeled anti-mouse CD8 (eBioscience clone 53-6.7) and appropriate isotype matched controls.

The subject of series [3] is RhoA. As to the kind of experiment: RhoA activity assay in thrombin treated hBMVECs. It counts as cell-based, human. To be noted: thrombin 0.1 unit/ml 5 min; L-NIO or FeTPPS 10 μM pretreated 30 min; GSNO or SIN-1 various concentrations pretreated 2 hr. Here is the method:
(§1) Cell culture: Primary human brain microvascular endothelial cells (hBMVECs) were purchased from Angio-Proteomie (Cat #: cAP-0002, Atlanta, Ga.). The cells were cultured in cell culture flasks or plates precoated with Quick Coating Solution (Angio-Proteomie; Cat #: cAP-01) and maintained in Endothelial Growth Medium (Angio-Proteomie; Cat #: cAP-02) at 37° C. under 5% CO2/95% air. When the cells were almost confluent, the medium was replaced with endothelial basal medium (Angio-Proteomie; Cat #: cAP-03) containing 0.5% fetal bovine serum (FBS; Life Technologies, Grand Island, N.Y.) about 8-12 hours before the experiment. No institutional approval was required for this study. The study was not pre-registered.
RhoA activity in hBMVECs was analyzed by RhoA Activation Assay Kit (Abeam Cat #: ab211164, Cambridge, Mass.). Briefly, following drug treatments, the cells were lysed with 1× Assay buffer provided in the kit. Lysates were centrifuged (14,000×g for 10 sec), and supernatants were incubated with agarose beads coupled to GST-Rhotekin-Rho binding domain (RBD) for 2 h at 4° C. Beads were then washed with 1× Assay buffer and GTP-bound RhoA was eluted with 2×SDS-PAGE sample buffer. Amounts of active (GTP-bound) RhoA were determined by Western blot analysis using antibody specific to RhoA (Abeam).

Series [4] concerns myosin light chain (MLC). As to the kind of experiment: Western analysis of MLC phosphorylation (Ser19) in thrombin treated hBMVECs. To be noted: thrombin 0.1 unit/ml 5 min; L-NIO or FeTPPS 10 μM; GSNO or SIN-1 various concentrations. It counts as cell-based, human. How it is done:
as §1
Western immunoblot analysis was performed by standard method using 50 μg of cell lysates. Following the SDS-PAGE electrophoresis, proteins were transferred from the gel onto the Polyvinylidene fluoride membrane (GE Healthcare Life Sciences, Marlborough, Mass.). Membranes were blocked with non-fat dry milk (Santa Cruz Biotechnology) or I-Block™ (ThermoFisher Scientific, Waltham, Mass.) for detection of phospho-proteins and incubated with primary antibodies, such as MBP (Santa Cruz Biotech Cat #: sc13914; RRID: AB_648798), phospho-(Ser^19) MLC (Abeam, Cat #: ab2480; RRID: AB_303094), MLC (Abeam, Cat #: ab79935; RRID:AB_1952220), P-actin (Santa Cruz Biotechnology, Cat #: sc-47778; RRID:AB_2714189), phospho-eNOS (Ser^1177) (Cell Signaling, Cat #: 9571; RRID: AB_329837, Danvers, Mass.), eNOS (Cell Signaling, Cat #: 32027), RhoA (Santa Cruz Biotechnology; Cat #: sc418; RRID: AB_628218) or 3-nitrotyrosine (Abeam, Cat #: ab61392; RRID: AB_942087). Following washing, the membranes were incubated with horseradish peroxidase conjugated secondary antibody (Jackson Immunoresearch Lab, West Grove, Pa.), washed and then incubated with ECL reagent (Amersham Life Science, Pittsbrugh, Pa.), and exposed to Amersham Hyperfilm ECL film

The test system of series [5] is protein-associated 3-nitrotyrosine. In words: Assay for protein-associated nitrotyrosine in hBMVECs. It counts as cell-based, human. How it is done:
as §1
Cellular levels of protein-associated 3-nitrotyrosine were analyzed by ELISA Kit (Abeam, Cat #: ab116691) and Western blot analysis using antibody specific to 3-nitrotyrosine (Abeam, Cat #: ab61392). For the ELISA, hBMVECs were lysed in extraction buffer provided with the kit followed by centrifugation at 16,000×g 4° C. The cell lysate supernatants were subjected to protein quantification with Bio-Rad DC protein assay kit (Bio-Rad, Hercules, Calif.) and the equal amounts of proteins (500 μg) were loaded onto 96 well microplate coated with 3-nitrotyrosine capture antibody and followed by incubation with biotin-conjugated 3-nitrotyrosine detector antibody. Following washing, the plates were incubated with HRP-conjugated streptoavidin and the levels of 3-nitrotyrosine were measured by incubation with 3,3′,5,5′-tetramethylbenzidine solution and colorimetric analysis at […] using SpectraMax 190 Microplate Reader (Molecular Devices, Sunnyvale, Calif.). For analysis of degree of RhoA tyrosine nitration, the cell lysates were immunoprecipiated with antibody specific to 3-nitrotyrosine (Abeam) and the levels of tyrosine nitrated RhoA were analyzed by Western analysis for RhoA.

The subject of series [6] is intracellular Ca^2+ ([Ca^2+]i) influx. In words: Assay for intracellular Ca2+ influx in thrombin treated hBMVECs. To be noted: thrombin 0.1 unit/ml; L-NIO or FeTPPS 10 μM; GSNO or SIN-1 various concentrations. In kind it is cell-based, human. Here is the method:
as §1, with “pre-registered. Intracellular Ca^2+ concentration ([Ca^2+]i) was measured with Fluo-4 Direct Calcium Assay Kit (Thermo Fisher Scientific, Cat #: F10471, Grand Island, N.Y.). Briefly, culture medium in the 96-well plate was replaced with a Ca^2+ sensitive dye Fluo-4 in an endothelial basal medium. After 30 min incubation, the dye was removed and cells were incubated with the original medium with or without the drugs at 37° C. for 15 min. Following thrombin treatment, time course changes of fluorescent intensity were quantified using a CLARIOstar multi-well fluorometer (BMG Labtech, Cary, N.C.).” for “pre-registered.”

The subject of series [7] is hBMVECs. As to the kind of experiment: Assay for F-actin stress fiber development in thrombin treated hBMVECs. In kind it is cell-based, human. The note with it: thrombin 0.1 unit/ml 30 min; GSNO 100 μM or SIN-1 100 μM pretreated 2 hr. How it is done: as §1
Assay for F-actin stress fiber development and endothelial cell contraction: hBMVECs were cultured on fibronectin-coated chamber slides (BD Bioscience). Following drug treatments, the cells were fixed with 4% (wt/vol) paraformaldehyde, permeabilized by the addition of 0.25% Triton X-100, and blocked by 2% bovine serum albumin (BSA) in phosphate buffered saline (PBS). […] The density of fluorescence was analyzed by ImageJ (NIH, Bethesda, Md.).

In series [8] the test system is hBMVECs. In words: Assay of trans-endothelial electrical resistance (TEER) in thrombin treated hBMVECs. It counts as cell-based, human. The note with it: thrombin 0.1 unit/ml; GSNO 100 μM or SIN-1 500 μM pretreated 2 hr. How it is done: as §1, with “pre-registered. For evaluation of the endothelial barrier function, hBMVECs were plated on fibronectin-coated polycarbonate filters (Transwell system, Corning, Midland, N.C.) containing Endothelial Growth Medium (Angio-Proteomie Cat #: cAP-02). The medium was renewed every other day. Five days after seeding, the medium was replaced with Endothelial Basal Medium (Angio-Proteomie Cat #: cAP-03) containing 0.5% FBS and incubated for 2 days. Following drug treatments, transendothelial electrical resistance (TEER) was measured by EVOM2 (Word Precision Instruments) as described previously (Li et al., 2006).” for “pre-registered.”

On to `CCCCCCCCc1ccc(CCC(N)(CO)CO)cc1` [FTY720], for which the “clinical score at the peak of disease” value in series [1] (day 21 post immunization, 1 mg/kg/day from disease onset (GSNO oral, N6022 i.p., FTY720 oral), untreated EAE 3.5±0.5) is listed as 3.0±0.87. Also, the “clinical score at the remission of disease” value in series [1] (day 41 post immunization, 1 mg/kg/day from disease onset (GSNO oral, N6022 i.p., FTY720 oral), untreated EAE 2.5±0.5) turned out to be 1.67±0.58. For the same compound, the “efficacy on EAE disease compared at the same dose” value in series [1] (single dose comparison of N6022, GSNO and FTY720, 1 mg/kg/day) is given as “less effective”. Moreover, the “numbers of total lymphocytes, CD3+ T cells, CD4+ T cells and CD8+ cells in blood” value in series [2] was “significantly reduced”.
With `CC(=N)NCCC[C@H](N)C(=O)O.Cl.Cl` [L-NIO, N^5-(1-Iminoethyl)-L-omithine dihydrochloride], the “thrombin-induced RhoA activation” value in series [3] was “decreased”. In addition, in series [4], the “thrombin-induced MLC phosphorylation” value is recorded as “inhibited”. Also, in series [5] (thrombin 0.1 unit/ml 20 min, L-NIO or FeTPPS 10 μM pretreated 30 min, ELISA), the “thrombin-induced 3-nitrotyrosine levels” value is reported as “attenuated”. Also, the “thrombin-induced intracellular Ca2+ influx” value in series [6] is reported as “had not effect”.
Consider `Cl.N=c1c[n+](N2CCOCC2)[n-]o1` [SIN-1, 3-morpholinosydnonimine chloride], for which the “thrombin-induced RhoA activation” value in series [3] is “enhanced”. Further, the “thrombin-induced development of F-actin stress fiber formation” value in series [7] is “enhanced”. In series [8], the “thrombin-induced loss of TEER” value is “enhanced”. Moreover, the “thrombin-induced MLC phosphorylation” value in series [4] was “enhanced”. Moreover, the RhoA tyrosine nitration result in series [5] (various concentrations, incubated 2 hr) is listed as “increased”. The “cellular levels of protein-associated 3-nitrotyrosine” value in series [5] (various concentrations, incubated 2 hr, no thrombin) was “increased”. Moreover, the “thrombin-induced intracellular Ca2+ influx” value in series [6] was “enhanced”.
